# Assay results taken from patent US11939340B2, “CDK inhibitors and their use as pharmaceuticals” (Prelude Therapeutics Incorporated, priority 2022, dated 2024).
# Experiments:
# CDK2/Cyclin E2 = CDK2/Cyclin E2 (Homo sapiens, UniProt P24941); assay: CDK2/CyclinE2 Enzymatic Activity Assay (TR-FRET); assay type: biochemical; settings: CDK2/CyclinE2 1 nM, ATP 1 mM, read-out: CDK2_El IC50
# Experimental: CDK2/CyclinE2 Enzymatic Activity Assay
# The inhibitory activity of compounds was evaluated in vitro using TR-FRET assay with white 384-well low volume microplate (Greiner Bio-One). CDK2/Cyclin E2 catalyzed phosphorylation of peptide in the presence and absence of compounds was measured and used in IC50 determination. Recombinant protein complex CDK2/Cyclin E2, expressed from insect cell, was purchased from ProQinase. Testing compounds were dissolved in DMSO at 1 mM and tested in 9-dose IC50 mode. The reaction mixture was prepared by mixing CDK2/CyclinE2 (1 nM final), ULight-4E-BP1 (50 nM final, Perkinelmer, TRF0128-D), and ATP (1 mM final) in assay buffer (20 mM of HEPES pH 7.4, 1 mM of EGTA, 0.05% BSA, 0.005% Tween 20, and 1 mM TCEP). The compound of interest in DMSO was added to each well in 3-fold serial dilution by dispenser (TECAN D300E) to make a 9.9 μL of reaction mixture. After 20 minutes preincubation at room temperature, 0.1 μL MgCl2 (10 mM final) was added to initiate the reaction. Following a 45 minute incubation at 37° C., the reaction was stopped by addition of 2 μL of quenching buffer consisting of Lance detection buffer (Perkinelmer CR97-100C), LANCE Ultra Europium-anti-P-4E-BP1 (Perkinelmer, TRF0216-D), EDTA, and incubate at room temperature for additional 60 minutes in the dark. The reaction signal was measured by Envision multimode plate reader (PerkinElmer, 2102-0010). IC50 values were determined by fitting the data to the standard 4 parameters with Hill Slope using GraphPad Prism software.
# CDK4/Cyclin D1 = target: T1, CDK4/Cyclin D1 (Homo sapiens, UniProt P11802); assay: CDK4/CyclinD1 Enzymatic Activity Assay (TR-FRET); assay type: biochemical; settings: CDK4/CyclinD1 1 nM, ATP 2 mM, read-out: CDK4_D1 IC50
# T1 construct: purchased ProQinase; host or cells: insect cell
# T1 sequence (P11802 whole entry): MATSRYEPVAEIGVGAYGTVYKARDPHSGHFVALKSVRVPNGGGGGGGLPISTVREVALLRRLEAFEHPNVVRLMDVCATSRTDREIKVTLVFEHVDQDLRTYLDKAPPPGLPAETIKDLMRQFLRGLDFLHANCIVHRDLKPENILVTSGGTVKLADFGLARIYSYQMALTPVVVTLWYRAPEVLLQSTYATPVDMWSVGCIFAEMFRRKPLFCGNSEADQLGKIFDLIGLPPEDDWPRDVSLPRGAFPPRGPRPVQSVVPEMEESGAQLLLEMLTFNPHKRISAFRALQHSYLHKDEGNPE
# T1 sequence (P24385 whole entry partner): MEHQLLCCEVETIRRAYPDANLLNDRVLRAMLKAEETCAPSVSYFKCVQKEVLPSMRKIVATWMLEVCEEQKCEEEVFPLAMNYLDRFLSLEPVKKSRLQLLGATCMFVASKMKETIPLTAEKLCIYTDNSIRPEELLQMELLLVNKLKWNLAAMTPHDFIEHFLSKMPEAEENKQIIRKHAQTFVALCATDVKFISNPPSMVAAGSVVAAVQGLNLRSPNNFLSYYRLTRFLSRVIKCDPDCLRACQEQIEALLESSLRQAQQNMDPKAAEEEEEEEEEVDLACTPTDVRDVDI
# Experimental: CDK4/CyclinD1 Enzymatic Activity Assay
# The inhibitory activity of compounds was evaluated in vitro using TR-FRET assay with white 384-well low volume microplate (Greiner Bio-One). CDK4/Cyclin D1 catalyzed phosphorylation of peptide in the presence and absence of compounds was measured and used in IC50 determination. Recombinant protein complex CDK4/Cyclin D1, expressed from insect cell, was purchased from ProQinase. Testing compounds were dissolved in DMSO at 1 mM and tested in 9-dose IC50 mode. The reaction mixture was prepared by mixing CDK4/CyclinD1 (1 nM final), ULight-4E-BP1 (100 nM final, Perkinelmer, TRF0128-D), and ATP (2 mM final) in assay buffer (20 mM of HEPES pH 7.4, 1 mM of EGTA, 0.05% BSA, 0.005% Tween 20, and 1 mM TCEP). The compound of interest in DMSO was added to each well in 3-fold serial dilution by the dispenser (TECAN D300E) to make a 9.9 μL of reaction mixture. After 20 minutes preincubation at room temperature, 0.1 μL MgCl2 (10 mM final) was added to initiate the reaction. Following a 45 minute incubation at 37° C., the reaction was stopped by addition of 2 μL of quenching buffer consisting of Lance detection buffer (Perkinelmer CR97-100C), LANCE Ultra Europium-anti-P-4E-BP1 (Perkinelmer, TRF0216-D), EDTA, and incubated at room temperature for additional 60 minutes in dark. The reaction signal was measured by Envision multimode plate reader (PerkinElmer, 2102-0010). IC50 values were determined by fitting the data to the standard 4 parameters with Hill Slope using GraphPad Prism software.
# pRB in OVCAR3 cells = assay: pRB ICW Assay in OVCAR3 Cells; assay type: cell-based; settings: Homo sapiens, OVCAR-3, incubated with compound for 2 hours, read-out: OVCAR3 p-RB ICW IC50
# Experimental: pRB ICW Assay in OVCAR3 Cells
# OVCAR3 cells were maintained in RPMI (Corning, Catalog #: 10-040-CV) supplemented with 10% v/v FBS (Gibco, Catalog #: 26140-079), 1% v/v Penicillin Streptomycin (Gibco, Catalog #15140-122.) OVCAR3 cells grown at log phase were trypsinized, counted, and resuspended in fresh medium to reach a final density of 6.7e4 cells/mL and 75 μL of culture were dispensed into a 384-well plate (Falcon, cat #353962) using a Multidrop Combi dispenser (Thermo Scientific). The next day, compounds were dispensed as a 9-point, ½ log serial dilution using a Tecan digital dispenser (D300e), and cells were incubated with compound for 2 hours in a humidified incubator at 37° C. A reference compound at a final concentration of 10 μM was used as a control for maximum inhibition. Each compound was tested in duplicates for each experiment. At the end of the incubation, 25 μL of 16% paraformaldehyde (Electron Microscopy, cat #15710) was slowly added to each well and the plate was incubated at room temperature (RT) for 30 minutes to fix cells. Cells were then permeabilized by incubating with 50 μL/well of wash buffer (lx PBS with 0.1% Triton X-100) 5×5 minutes, followed by 1 hour blocking with 30 μL/well of Odyssey blocking buffer (Li—COR, cat #927-40000), at RT. Anti-phosphor RB antibody (Cell signaling 8516S) was diluted 1:1000 in Odyssey blocking buffer and 20 μL was added to all wells and incubated overnight in 4° C. with gently rocking. The next day, cells were washed 5×5 min with 50 μL/well of wash buffer, followed with 1 hour incubation with secondary antibody and DRAQ5 diluted in Odyssey blocking buffer (1:500 dilution for secondary antibody and 1:2000 dilution for DRAQ5), 5×5 min washes, and one last wash with water. Plates were dried in 37° C. oven for 5 minutes and scanned using Li—COR Odyssey CLx imaging system to acquire intensities at 700 and 800 nm channels.
IC50 (CDK2/Cyclin E2) [nM],IC50 (CDK4/Cyclin D1) [nM],IC50 (pRB in OVCAR3 cells) [nM],SMILES
≤ 100,≤ 100,100 to 500,"CC(C)C12CCCCN1C(=O)c1cc(-c3nc(NC4CCN(S(C)(=O)=O)CC4)ncc3C(F)(F)F)sc12 (stereo not shown) [Example 1, 9a-isopropyl-2-(2-((1-(methylsulfonyl)piperidin-4-yl)amino)-5-(trifluoromethyl)pyrimidin-4-yl)-7,8,9,9a-tetrahydrothieno[2,3-a]indolizin-4(6H)-one]"
≤ 100,≤ 100,,"CS(=O)(=O)N1CCC(Nc2ncc(C(F)(F)F)c(-c3cc4c(s3)C3(CCCO)CCCCN3C4=O)n2)CC1 (stereo not shown) [Example 4, 9a-(3-Hydroxypropyl)-2-(2-((1-(methylsulfonyl)piperidin-4-yl)amino)-5-(trifluoromethyl)pyrimidin-4-yl)-7,8,9,9a-tetrahydrothieno[2,3-a]indolizin-4(6H)-one]"
≤ 100,≤ 100,,"CS(=O)(=O)N1CCC(Nc2ncc(C(F)(F)F)c(-c3cc4c(s3)C3(CCO)CCCCN3C4=O)n2)CC1 (stereo not shown) [Example 5, 9a-(2-Hydroxyethyl)-2-(2-((1-(methylsulfonyl)piperidin-4-yl)amino)-5-(trifluoromethyl)pyrimidin-4-yl)-7,8,9,9a-tetrahydrothieno[2,3-a]indolizin-4(6H)-one]"
≤ 100,≤ 100,≤ 100,"CC12CCCCN1C(=O)c1cc(-c3nc(NC4CCN(S(C)(=O)=O)CC4)ncc3F)sc12 (stereo not shown) [Example 6, 2-(5-Fluoro-2-((1-(methylsulfonyl)piperidin-4-yl)amino)pyrimidin-4-yl)-9a-methyl-7,8,9,9a-tetrahydrothieno[2,3-a]indolizin-4(6H)-one]"
≤ 100,,,"CC(C)C12CCCCN1C(=O)c1cc(-c3nc(NC4CCN(S(C)(=O)=O)CC4)ncc3F)sc12 (stereo not shown) [Example 9, 2-(5-Fluoro-2-((1-(methylsulfonyl)piperidin-4-yl)amino)pyrimidin-4-yl)-9a-isopropyl-7,8,9,9a-tetrahydrothieno[2,3-a]indolizin-4(6H)-one]"
≤ 100,≤ 100,100 to 500,"CC(C)C12CCOCCN1C(=O)c1cc(-c3nc(NC4CCN(S(C)(=O)=O)CC4)ncc3C(F)(F)F)sc12 (stereo not shown) [Example 10, 10a-Isopropyl-2-(2-((1-(methylsulfonyl)piperidin-4-yl)amino)-5-(trifluoro-methyl)pyrimidin-4-yl)-6,7,10,10a-tetrahydrothieno[2′,3′:3,4]pyrrolo[1,2-d][1,4]oxazepin-4(9H)-one]"
≤ 100,≤ 100,100 to 500,"CC(C)C12CCCN1C(=O)c1cc(-c3nc(NC4CCN(S(C)(=O)=O)CC4)ncc3C(F)(F)F)sc12 (stereo not shown) [Example 11, 8a-Isopropyl-2-(2-((1-(methylsulfonyl)piperidin-4-yl)amino)-5-(trifluoro-methyl)pyrimidin-4-yl)-6,7,8,8a-tetrahydro-4H-thieno[2,3-a]pyrrolizin-4-one]"
≤ 100,≤ 100,≤ 100,"CCC12CCCN1C(=O)c1cc(-c3nc(NC4CCN(S(C)(=O)=O)CC4)ncc3C(F)(F)F)sc12 (stereo not shown) [Example 14, 8a-Ethyl-2-[2-[(1-methylsulfonylpiperidin-4-yl)amino]-5-(trifluoromethyl)pyrimidin-4-yl]-7,8-dihydro-6H-thieno[2,3-a]pyrrolizin-4-one]"
≤ 100,≤ 100,≤ 100,"CCC12CCCN1C(=O)c1cc(-c3nc(NC4CCN(S(C)(=O)=O)CC4)ncc3F)sc12 (stereo not shown) [Example 15, 8a-Ethyl-2-[5-fluoro-2-[(1-methylsulfonylpiperidin-4-yl)amino]pyrimidin-4-yl]-7,8-dihydro-6H-thieno[2,3-a]pyrrolizin-4-one]"
≤ 100,≤ 100,≤ 100,"CCC12CCCN1C(=O)c1cc(-c3nc(NC4CCN(S(C)(=O)=O)CC4)ncc3C)sc12 (stereo not shown) [Example 16, 8a-Ethyl-2-[5-methyl-2-[(1-methylsulfonylpiperidin-4-yl)amino]pyrimidin-4-yl]-7,8-dihydro-6H-thieno[2,3-a]pyrrolizin-4-one]"
≤ 100,≤ 100,100 to 500,"CS(=O)(=O)N1CCC(Nc2ncc(C(F)(F)F)c(-c3cc4c(s3)C3(CO)CCCN3C4=O)n2)CC1 (stereo not shown) [Example 17, 8a-(Hydroxymethyl)-2-(2-((1-(methylsulfonyl)piperidin-4-yl)amino)-5-(trifluoromethyl)pyrimidin-4-yl)-6,7,8,8a-tetrahydro-4H-thieno[2,3-a]pyrrolizin-4-one]"
≤ 100,≤ 100,100 to 500,"CS(=O)(=O)N1CCC(Nc2ncc(C(F)(F)F)c(-c3cc4c(s3)C3(CF)CCCN3C4=O)n2)CC1 (stereo not shown) [Example 18, 8a-(Fluoromethyl)-2-(2-((1-(methylsulfonyl)piperidin-4-yl)amino)-5-(trifluoromethyl)pyrimidin-4-yl)-6,7,8,8a-tetrahydro-4H-thieno[2,3-a]pyrrolizin-4-one]"
≤ 100,≤ 100,≤ 100,"CS(=O)(=O)N1CCC(Nc2ncc(C(F)(F)F)c(-c3cc4c(s3)C3(CCF)CCCN3C4=O)n2)CC1 (stereo not shown) [Example 19, 8a-(2-Fluoroethyl)-2-(2-((1-(methylsulfonyl)piperidin-4-yl)amino)-5-(trifluoromethyl)pyrimidin-4-yl)-6,7,8,8a-tetrahydro-4H-thieno[2,3-a]pyrrolizin-4-one]"
≤ 100,≤ 100,≤ 100,"CC12CCCN1C(=O)c1cc(-c3nc(NC4CCN(S(C)(=O)=O)CC4)ncc3C(F)(F)F)sc12 (stereo not shown) [Example 20, 8a-Methyl-2-(2-((1-(methylsulfonyl)piperidin-4-yl)amino)-5-(trifluoromethyl)pyrimidin-4-yl)-6,7,8,8a-tetrahydro-4H-thieno[2,3-a]pyrrolizin-4-one]"
100 to 500,100 to 500,,"CCC12CCCN1C(=O)c1cc(-c3ccnc(NC4CCN(S(C)(=O)=O)CC4)n3)sc12 (stereo not shown) [Example 28, 8a-Ethyl-2-(2-((1-(methylsulfonyl)piperidin-4-yl)amino)pyrimidin-4-yl)-6,7,8,8a-tetrahydro-4H-thieno[2,3-a]pyrrolizin-4-one]"
